According to PubChem BioAssay AID248 (DTP/NCI, 2004):
Several values for one entry are separate records, joined by “and”; a condition that tells them apart may be missing. Identical values can stand only once. Inconclusive results and toxic doses are left out.

Test system: L1210 leukemia ip in BDF1 mice, survival T/C
Assay: NCI In Vivo Anticancer Drug Screen. Data for tumor model L1210 Leukemia (intraperitoneal) in B6D2F1 (BDF1) mice
Conditions: endpoint: mean survival time, higher = longer survival
In short: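 Mice bearing the transplanted tumor received compound or vehicle. Survival of the treated group was divided by that of the vehicle-treated control group to give the ratio.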

How did the T/C (dose: 0.5 mg/kg/injection, schedule: Q03HX008 (ip), vehicle: other) turn out when `O/N=c1/ccn(O)c2ccccc12` was run?
Its T/C is 114 % of control.

What about the T/C (dose: 0.51 mg/kg/injection, schedule: Q01DX009 (ip), vehicle: saline) of the same compound?
Its T/C is 111 % of control and 119 % of control.

And the T/C (dose: 0.78 mg/kg/injection, schedule: Q01DX009 (ip), vehicle: saline)?
Its T/C is 116 % of control.

What about the T/C (dose: 1.0 mg/kg/injection, schedule: Q01DX009 (sc), vehicle: other) of the same compound?
The T/C was 114 % of control.

What about the T/C (dose: 1.17 mg/kg/injection, schedule: Q01DX009 (ip), vehicle: saline) of the same compound?
The T/C was 110 % of control.

And the T/C (dose: 1.7 mg/kg/injection, schedule: Q01DX015 (ip), vehicle: saline)?
The T/C was 108 % of control.

What about the T/C (dose: 2.0 mg/kg/injection, schedule: Q01DX009 (sc), vehicle: other) of the same compound?
The T/C was 113 % of control.

And the T/C (dose: 2.0 mg/kg/injection, schedule: Q01DX015 (ip), vehicle: saline)?
Its T/C is 122 % of control.

What about the T/C (dose: 2.0 mg/kg/injection, schedule: Q03HX008 (ip), vehicle: other) of the same compound?
The T/C was 151 % of control.

What about the T/C (dose: 4.0 mg/kg/injection, schedule: Q01DX001 (sc), vehicle: other) of the same compound?
Its T/C is 118 % of control.

What about the T/C (dose: 4.0 mg/kg/injection, schedule: Q01DX009 (ip), vehicle: other) of the same compound?
Its T/C is 88 % of control.

What about the T/C (dose: 4.0 mg/kg/injection, schedule: Q01DX009 (oral), vehicle: other) of the same compound?
The T/C was 98 % of control.

What about the T/C (dose: 4.0 mg/kg/injection, schedule: Q01DX009 (sc), vehicle: other) of the same compound?
Its T/C is 104 % of control.

And the T/C (dose: 4.0 mg/kg/injection, schedule: Q03HX016 (ip), vehicle: other)?
The T/C was 87 % of control.

And the T/C (dose: 4.4 mg/kg/injection, schedule: Q01DX001 (ip), vehicle: other)?
Its T/C is 113 % of control.

And the T/C (dose: 6.0 mg/kg/injection, schedule: Q01DX015 (ip), vehicle: saline)?
The T/C was 123 % of control.

And the T/C (dose: 6.6 mg/kg/injection, schedule: Q01DX001 (ip), vehicle: other)?
Its T/C is 113 % of control.

What about the T/C (dose: 8.0 mg/kg/injection, schedule: Q01DX001 (ip), vehicle: other) of the same compound?
Its T/C is 108 % of control.

And the T/C (dose: 8.0 mg/kg/injection, schedule: Q01DX001 (oral), vehicle: other)?
The T/C was 102 % of control.

And the T/C (dose: 8.0 mg/kg/injection, schedule: Q01DX001 (sc), vehicle: other)?
Its T/C is 108 % of control.

And the T/C (dose: 8.0 mg/kg/injection, schedule: Q01DX005 (ip), vehicle: other)?
The T/C was 93 % of control.

And the T/C (dose: 8.0 mg/kg/injection, schedule: Q01DX009 (oral), vehicle: other)?
The T/C was 108 % of control.

And the T/C (dose: 8.0 mg/kg/injection, schedule: Q01DX009 (sc), vehicle: other)?
The T/C was 120 % of control.

And the T/C (dose: 8.0 mg/kg/injection, schedule: Q04DX003 (ip), vehicle: other)?
The T/C was 110 % of control.

What about the T/C (dose: 8.0 mg/kg/injection, schedule: Q08DX002 (ip), vehicle: other) of the same compound?
Its T/C is 114 % of control.

What about the T/C (dose: 9.0 mg/kg/injection, schedule: Q01DX015 (ip), vehicle: saline) of the same compound?
The T/C was 87 % of control.

And the T/C (dose: 16.0 mg/kg/injection, schedule: Q01DX001 (oral), vehicle: other)?
The T/C was 103 % of control.

What about the T/C (dose: 16.0 mg/kg/injection, schedule: Q01DX001 (sc), vehicle: other) of the same compound?
Its T/C is 96 % of control.

What about the T/C (dose: 16.0 mg/kg/injection, schedule: Q01DX009 (oral), vehicle: other) of the same compound?
The T/C was 103 % of control.

What about the T/C (dose: 25.0 mg/kg/injection, schedule: Q04DX003 (ip), vehicle: saline) of the same compound?
Its T/C is 88 % of control.

What about the T/C (dose: 32.0 mg/kg/injection, schedule: Q01DX001 (oral), vehicle: other) of the same compound?
Its T/C is 113 % of control.

What about the T/C (dose: 32.0 mg/kg/injection, schedule: Q01DX001 (sc), vehicle: other) of the same compound?
The T/C was 118 % of control.

And the T/C (dose: 32.0 mg/kg/injection, schedule: Q01DX009 (oral), vehicle: other)?
Its T/C is 103 % of control.

What about the T/C (dose: 40.0 mg/kg/injection, schedule: Q01DX001 (ip), vehicle: other) of the same compound?
Its T/C is 109 % of control.

And the T/C (dose: 64.0 mg/kg/injection, schedule: Q01DX001 (oral), vehicle: other)?
The T/C was 104 % of control.

What about the T/C (dose: 80.0 mg/kg/injection, schedule: Q01DX001 (ip), vehicle: other) of the same compound?
The T/C was 89 % of control.

And the T/C (dose: 128.0 mg/kg/injection, schedule: Q01DX001 (oral), vehicle: other)?
The T/C was 103 % of control.

What does the source list for `CC(C)CCCCc1c[nH]c(=O)[nH]c1=O`?
T/C (dose: 100.0 mg/kg/injection, schedule: Q01DX009 (ip), vehicle: saline with Tween-80): 107 % of control; T/C (dose: 100.0 mg/kg/injection, schedule: Q04DX003 (ip), vehicle: saline with Tween-80): 94 % of control; T/C (dose: 200.0 mg/kg/injection, schedule: Q01DX009 (ip), vehicle: saline with Tween-80): 104 % of control; T/C (dose: 200.0 mg/kg/injection, schedule: Q04DX003 (ip), vehicle: saline with Tween-80): 97 % of control; T/C (dose: 400.0 mg/kg/injection, schedule: Q01DX009 (ip), vehicle: saline with Tween-80): 101 % of control; T/C (dose: 400.0 mg/kg/injection, schedule: Q04DX003 (ip), vehicle: saline with Tween-80): 92 % of control
